Laboratory results: ChEMBL document CHEMBL1687806, “Susceptibility of treatment-naive hepatitis C virus (HCV) clinical isolates to HCV protease inhibitors” (Antimicrob Agents Chemother, 2010)

How the values were obtained:
Hepatitis C virus [1] = assay: Antiviral activity against HCV1b Con1 harboring NS3 protease gene infected in human Huh7/Lunet cells assessed as inhibition of viral replication after 3 days by luciferase based transient-transfection assay; format: functional, organism-based, Hepacivirus hominis; conditions: Con1, Huh-7, 72 h
Hepatitis C virus [2] = assay: Ratio of EC50 for wild type HCV1b harboring NS3 protease gene to EC50 for HCV1b B13 harboring NS3 protease R26K, V46I, Q80L mutant; format: functional, Hepacivirus hominis, genotype 1b
Hepatitis C virus [3] = assay: Ratio of EC50 for wild type HCV1b harboring NS3 protease gene to EC50 for HCV1b A25 harboring NS3 protease T40A, T54S, V55I, I64L, P67S, Q80K, Q88H, S90A, L153I mutant; format: functional, Hepacivirus hominis, genotype 1b
Hepatitis C virus [4] = assay: Ratio of EC50 for wild type HCV1b harboring NS3 protease gene to EC50 for HCV1b B10 harboring NS3 protease S7A, R26K, V48I, T54S mutant; format: functional, Hepacivirus hominis, genotype 1b
Hepatitis C virus [5] = assay: Antiviral activity against HCV1b harboring Q80Q polymorphism in NS3 protease gene infected in human Huh7/Lunet cells assessed as inhibition of viral replication after 3 days by luciferase based transient-transfection assay; format: functional, organism-based, Hepacivirus hominis; conditions: genotype 1b, Huh-7, 72 h
Hepatitis C virus [6] = assay: Antiviral activity against HCV1b harboring Q80K polymorphism in NS3 protease gene infected in human Huh7/Lunet cells assessed as inhibition of viral replication after 3 days by luciferase based transient-transfection assay; format: functional, organism-based, Hepacivirus hominis; conditions: genotype 1b, Huh-7, 72 h
Hepatitis C virus [7] = assay: Ratio of EC50 for HCV1b harboring Q80K polymorphism in NS3 protease gene to EC50 for HCV1b harboring Q80Q polymorphism in NS3 protease gene; format: functional, Hepacivirus hominis, genotype 1b
Hepatitis C virus [8] = assay: Ratio of EC50 for wild type HCV1b harboring NS3 protease gene to EC50 for HCV1b harboring NS3 protease T54S mutant; format: functional, Hepacivirus hominis, genotype 1b
Hepatitis C virus [9] = assay: Ratio of EC50 for wild type HCV1b harboring NS3 protease gene to EC50 for HCV1b harboring NS3 protease Q80K mutant; format: functional, Hepacivirus hominis, genotype 1b
Hepatitis C virus [10] = assay: Ratio of EC50 for wild type HCV1b harboring NS3 protease gene to EC50 for HCV1b harboring NS3 protease Q80K, T54S mutant; format: functional, Hepacivirus hominis, genotype 1b

Row | SMILES | EC50 (Hepatitis C virus [1]) | Ratio EC50 (Hepatitis C virus [2]) | Ratio EC50 (Hepatitis C virus [3]) | Ratio EC50 (Hepatitis C virus [4]) | EC50 (Hepatitis C virus [5]) | EC50 (Hepatitis C virus [6]) | Ratio EC50 (Hepatitis C virus [7]) | Ratio EC50 (Hepatitis C virus [8]) | Ratio EC50 (Hepatitis C virus [9]) | Ratio EC50 (Hepatitis C virus [10])
1 | CCCCCOc1ccc(NC(=S)NC(=O)c2cccnc2)cc1C(F)(F)F | 28.2 nM |  |  |  |  |  |  |  |  | 
2 | CC(C)(C)NC(=O)N[C@H](C(=O)N1C[C@H]2[C@@H]([C@H]1C(=O)NC(CC1CCC1)C(=O)C(N)=O)C2(C)C)C(C)(C)C (stereo partly specified) [BOCEPREVIR] | 276 nM | 1 | 1.7 | 9 | 201 nM | 91.5 nM | 0.4 | 4.7 | 0.9 | 1.7
3 | CC(C)(C)OC(=O)N[C@H]1CCCCC/C=C\[C@@H]2C[C@@]2(C(=O)NS(=O)(=O)C2CC2)NC(=O)[C@@H]2C[C@@H](OC(=O)N3Cc4cccc(F)c4C3)CN2C1=O [DANOPREVIR] | 0.6 nM | 1.7 | 2.7 | 1.2 | 0.25 nM | 0.62 nM | 1.7 | 1 | 6.3 | 5.3
4 | COc1ccc2c(O[C@@H]3C[C@H]4C(=O)N[C@]5(C(=O)NS(=O)(=O)C6CC6)C[C@H]5/C=C\CCCCN(C)C(=O)[C@@H]4C3)cc(-c3nc(C(C)C)cs3)nc2c1C [SIMEPREVIR] | 3.3 nM | 1 | 10.8 | 0.8 | 2.7 nM | 20.1 nM | 7.5 | 0.7 | 10.9 | 7.3
5 | CCC[C@H](NC(=O)[C@@H]1[C@H]2CCC[C@H]2CN1C(=O)[C@@H](NC(=O)[C@@H](NC(=O)c1cnccn1)C1CCCCC1)C(C)(C)C)C(=O)C(=O)NC1CC1 [TELAPREVIR] | 377 nM | 1 | 1 | 6.2 | 176 nM | 72 nM | 0.5 | 5.6 | 1 | 2.3
6 | CC[C@@H]1C[C@]1(NC(=O)[C@@H]1C[C@@H]2CN1C(=O)[C@H](C(C)(C)C)NC(=O)OCC(C)(C)CCCCc1cccc3c1CN(C3)C(=O)O2)C(=O)NS(=O)(=O)C1CC1 [VANIPREVIR] | 0.7 nM | 1.5 | 2.2 | 1.2 | 0.27 nM | 0.41 nM | 1.5 | 0.5 | 6.6 | 3.7
